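Grown in 96-well plates, cells were treated for 48 hours with each compound at five concentrations. Insufficient inhibition: endpoint recorded as highest concentration tested. The concentration for full growth arrest is given as TGI.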
Legend:
Assay in all cases: DTP human tumour cell line panel, 48 h
[1] = tested on: 786-0 renal
[2] = tested on: A498 renal
[3] = tested on: A549 NSCLC
[4] = tested on: ACHN renal
[5] = tested on: BT-549 breast
[6] = tested on: CAKI-1 renal
[7] = tested on: CCRF-CEM leukemia
[8] = tested on: COLO 205 colon
[9] = tested on: DU-145 prostate
[10] = tested on: EKVX NSCLC
[11] = tested on: HCC-2998 colon
[12] = tested on: HCT-116 colon
[13] = tested on: HCT-15 colon
[14] = tested on: HL-60(TB) leukemia
[15] = tested on: HOP-62 NSCLC
[16] = tested on: HOP-92 NSCLC
[17] = tested on: HS 578T breast
[18] = tested on: HT29 colon
[19] = tested on: IGROV1 ovarian
[20] = tested on: K-562 leukemia
[21] = tested on: KM12 colon
[22] = tested on: M14 melanoma
[23] = tested on: MALME-3M melanoma
[24] = tested on: MCF7 breast
[25] = tested on: MDA-MB-231 breast
[26] = tested on: MDA-MB-435
[27] = tested on: MDA-N
[28] = tested on: MOLT-4 leukemia
[29] = tested on: NCI-H226 lung
[30] = tested on: NCI-H23 lung
[31] = tested on: NCI-H460 lung
[32] = tested on: NCI-H522 lung
[33] = tested on: NCI/ADR-RES ovarian
[34] = tested on: OVCAR-3 ovarian
[35] = tested on: OVCAR-4 ovarian
[36] = tested on: OVCAR-5 ovarian
[37] = tested on: OVCAR-8 ovarian
[38] = tested on: PC-3 prostate
[39] = tested on: RPMI-8226 leukemia
[40] = tested on: RXF 393 renal
[41] = tested on: SF-268 CNS
[42] = tested on: SF-295 CNS
[43] = tested on: SF-539 CNS
[44] = tested on: SK-MEL-2 melanoma
[45] = tested on: SK-MEL-28 melanoma
[46] = tested on: SK-MEL-5 melanoma
[47] = tested on: SK-OV-3 ovarian
[48] = tested on: SN12C renal
[49] = tested on: SNB-19 CNS
[50] = tested on: SR leukemia
[51] = tested on: T-47D breast
[52] = tested on: TK-10 renal
[53] = tested on: U251 CNS
[54] = tested on: UACC-257 melanoma
[55] = tested on: UACC-62 melanoma
[56] = tested on: UO-31 renal
[57] = tested on: SNB-75 CNS
[58] = tested on: SW-620 colon

COc1ccc2cc(-c3nc(N)nc(N4N=C(C)CC4(C)C)n3)c(=N)oc2c1
TGI [1]: 36.3 µM | TGI [2]: 82.1 µM | TGI [3]: > 100 µM | TGI [4]: 31.8 µM | TGI [5]: 48.1 µM | TGI [6]: 38 µM | TGI [7]: 41.4 µM | TGI [8]: 30.8 µM | TGI [9]: 32.6 µM | TGI [10]: 67.2 µM | TGI [11]: 32.6 µM | TGI [12]: 35 µM | TGI [13]: 32 µM | TGI [14]: 43.9 µM | TGI [15]: 41.6 µM | TGI [16]: 60.5 µM | TGI [17]: 66.4 µM | TGI [18]: 31.7 µM | TGI [19]: 37.8 µM | TGI [20]: 40.2 µM | TGI [21]: 30.6 µM | TGI [22]: 38.1 µM | TGI [23]: 32.7 µM | TGI [24]: 44.2 µM | TGI [25]: 44.8 µM | TGI [26]: 42.1 µM | TGI [27]: 33.5 µM | TGI [28]: 33.7 µM | TGI [29]: 40.6 µM | TGI [30]: 31.8 µM | TGI [31]: 35.6 µM | TGI [32]: 27.8 µM | TGI [33]: > 100 µM | TGI [34]: 28.5 µM | TGI [35]: 50.5 µM | TGI [36]: 41.3 µM | TGI [37]: 49.8 µM | TGI [38]: 39.2 µM | TGI [39]: 36.6 µM | TGI [40]: 58.9 µM | TGI [41]: 33.8 µM | TGI [42]: 33.2 µM | TGI [43]: 30.2 µM | TGI [44]: 35.7 µM | TGI [45]: 31.8 µM | TGI [46]: 30.1 µM | TGI [47]: 53.9 µM | TGI [48]: 51.7 µM | TGI [49]: 40.1 µM | TGI [50]: 32.1 µM | TGI [51]: 38.9 µM | TGI [52]: 72 µM | TGI [53]: 41.9 µM | TGI [54]: 95.7 µM | TGI [55]: 36.3 µM | TGI [56]: 55.1 µM

O=C1CC(=O)NC(=NNS(=O)(=O)c2ccccc2)N1
TGI [1]: > 100 µM | TGI [3]: > 100 µM | TGI [4]: > 100 µM | TGI [5]: > 100 µM | TGI [6]: > 100 µM | TGI [7]: > 100 µM | TGI [8]: > 100 µM | TGI [9]: > 100 µM | TGI [11]: > 100 µM | TGI [12]: > 100 µM | TGI [13]: > 100 µM | TGI [15]: > 100 µM | TGI [16]: > 100 µM | TGI [17]: > 100 µM | TGI [18]: > 100 µM | TGI [19]: > 100 µM | TGI [20]: > 100 µM | TGI [21]: > 100 µM | TGI [22]: > 100 µM | TGI [23]: > 100 µM | TGI [24]: > 100 µM | TGI [25]: > 100 µM | TGI [26]: > 100 µM | TGI [27]: > 100 µM | TGI [28]: > 100 µM | TGI [29]: > 100 µM | TGI [30]: > 100 µM | TGI [31]: > 100 µM | TGI [32]: > 100 µM | TGI [33]: > 100 µM | TGI [34]: > 100 µM | TGI [35]: > 100 µM | TGI [36]: > 100 µM | TGI [37]: > 100 µM | TGI [38]: > 100 µM | TGI [39]: > 100 µM | TGI [40]: > 100 µM | TGI [41]: > 100 µM | TGI [42]: > 100 µM | TGI [43]: > 100 µM | TGI [44]: > 100 µM | TGI [45]: > 100 µM | TGI [46]: > 100 µM | TGI [47]: > 100 µM | TGI [48]: > 100 µM | TGI [49]: > 100 µM | TGI [57]: > 100 µM | TGI [50]: > 100 µM | TGI [58]: > 100 µM | TGI [51]: > 100 µM | TGI [52]: > 100 µM | TGI [53]: > 100 µM | TGI [54]: > 100 µM | TGI [55]: > 100 µM | TGI [56]: > 100 µM

Source: PubChem BioAssay (NCI)
